# Reference: patent US20100286406A1, “1,3- DIALKYLBENZIMIDAZOLE HALOGENIDES EXHIBITING REGENERATIVE, ANTI-INFLAMMATORY, AND ANTIMICROBIAL ACTIVITY” (priority 2007, published 2010)
# System: burn caused by light radiation
# Assay: Light radiation burn model, epithelization of burn wounds (regenerative activity)
# Format: in vivo
# Text: The regenerative activity of the claimed compounds was studied on a model of a burn caused by light radiation on a specialized apparatus. […] Unless this medication is applied to a burn, a keloidal scar is produced on the burn area and no skin appendages are formed.
compound,measurement,setting,value
"CC(C)(CO)C(O)C(=O)NCCCO (centres unmarked) [Panthenol, 2,4-dioxy-N-(3-oxypropyl)-3,3-dimethylbutyramide]",Percentage of fully epithelized burn wounds,25th day of observations,55%
same,Percentage of fully epithelized burn wounds,30th day of observations,85%
